One experiment has as its target MtMetAP1a (Mycobacterium tuberculosis, UniProt P9WK21). The experiment can be described thus: MetAP enzyme inhibition assay. The class given is biochemical. As to conditions: for selectivity for both MtMetAPs over human MetAPs: MtMetAP1a and MtMetAP1c relative to HsMetAP1 and HsMetAP2, from IC50 values.
A further experiment concerns the target MtMetAP1c (Mycobacterium tuberculosis, UniProt P9WK19). The experiment can be described thus: MetAP enzyme inhibition assay. The class given is biochemical.
For the next experiment, the system named is M. tuberculosis H37Rv. The experiment can be described thus: Minimum Inhibitory Concentration in replicating M. tuberculosis. The class given is cell-based, Mycobacterium tuberculosis. As to conditions: ratio of M.I.C. values.
Experiment [1] deals with aged non-growing M. tuberculosis H37Ra. The experiment is described as follows: Activity on aged non-growing M. tuberculosis. The note with it: 2 month old H37Ra culture, acid 7H9 pH5.5, 1% oxygen.

These results are taken from article PMC11059541 (Tuberculosis (Edinburgh, Scotland), 2011).

Sequence of MtMetAP1a (P9WK21 whole entry): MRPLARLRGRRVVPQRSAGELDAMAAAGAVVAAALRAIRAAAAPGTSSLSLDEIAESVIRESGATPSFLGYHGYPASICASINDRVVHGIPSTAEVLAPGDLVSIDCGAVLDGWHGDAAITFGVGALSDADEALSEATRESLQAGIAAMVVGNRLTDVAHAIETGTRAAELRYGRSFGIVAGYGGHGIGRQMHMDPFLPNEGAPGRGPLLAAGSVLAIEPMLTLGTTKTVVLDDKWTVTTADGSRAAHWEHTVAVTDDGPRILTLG
Sequence of MtMetAP1c (P9WK19 whole entry): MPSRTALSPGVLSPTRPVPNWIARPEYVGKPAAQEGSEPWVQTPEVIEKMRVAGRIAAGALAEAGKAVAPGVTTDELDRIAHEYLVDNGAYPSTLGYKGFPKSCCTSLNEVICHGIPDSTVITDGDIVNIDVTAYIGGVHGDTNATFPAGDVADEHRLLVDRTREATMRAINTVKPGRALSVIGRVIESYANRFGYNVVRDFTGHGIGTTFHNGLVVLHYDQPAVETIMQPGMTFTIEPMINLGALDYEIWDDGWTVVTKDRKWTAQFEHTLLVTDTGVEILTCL

As usually defined, the IC50 is the concentration that gives 50% inhibition. A higher IC50 goes with weaker potency. As to `Oc1c(Br)cc(Cl)c2cccnc12` [CLBQ14], on MtMetAP1a, the IC50 came out at 5.44 µM and the “selectivity for both MtMetAPs over human MetAPs” value is on record as “greater than 19 folds”. Besides, half-maximal inhibition against MtMetAP1c (IC50) was put at 4.92 µM. Moreover, the “potency in replicating M. tuberculosis culture relative to CQ” value with M. tuberculosis H37Rv is listed as “two-fold”. The “M.I.C. Aged non-growing M. tuberculosis” value in experiment [1] lay within 0.65 to 1.62 µg/mL.
In the case of `Oc1c(I)cc(Cl)c2cccnc12` [Clioquinol (CQ), clioquinol, reference compound], on MtMetAP1a, the half-inhibitory concentration (IC50) came to 9.25 µM and the “selectivity for both MtMetAPs over human MetAPs” value is reported as “less than 10 folds”. Moreover, on MtMetAP1c, the 50% inhibitory concentration (IC50) was found to be 11.2 µM.
